Data on one compound can be found in US20080305958A1, “Process for Liquid or gas Chromatography/Mass Spectrometry Based Biomolecular Screening for Drug Discovery” (priority 2004, published 2008).

For this assay, the target named is T1, M CPT-I (Homo sapiens, UniProt Q92523).
T1 sequence (Q92523 1-772): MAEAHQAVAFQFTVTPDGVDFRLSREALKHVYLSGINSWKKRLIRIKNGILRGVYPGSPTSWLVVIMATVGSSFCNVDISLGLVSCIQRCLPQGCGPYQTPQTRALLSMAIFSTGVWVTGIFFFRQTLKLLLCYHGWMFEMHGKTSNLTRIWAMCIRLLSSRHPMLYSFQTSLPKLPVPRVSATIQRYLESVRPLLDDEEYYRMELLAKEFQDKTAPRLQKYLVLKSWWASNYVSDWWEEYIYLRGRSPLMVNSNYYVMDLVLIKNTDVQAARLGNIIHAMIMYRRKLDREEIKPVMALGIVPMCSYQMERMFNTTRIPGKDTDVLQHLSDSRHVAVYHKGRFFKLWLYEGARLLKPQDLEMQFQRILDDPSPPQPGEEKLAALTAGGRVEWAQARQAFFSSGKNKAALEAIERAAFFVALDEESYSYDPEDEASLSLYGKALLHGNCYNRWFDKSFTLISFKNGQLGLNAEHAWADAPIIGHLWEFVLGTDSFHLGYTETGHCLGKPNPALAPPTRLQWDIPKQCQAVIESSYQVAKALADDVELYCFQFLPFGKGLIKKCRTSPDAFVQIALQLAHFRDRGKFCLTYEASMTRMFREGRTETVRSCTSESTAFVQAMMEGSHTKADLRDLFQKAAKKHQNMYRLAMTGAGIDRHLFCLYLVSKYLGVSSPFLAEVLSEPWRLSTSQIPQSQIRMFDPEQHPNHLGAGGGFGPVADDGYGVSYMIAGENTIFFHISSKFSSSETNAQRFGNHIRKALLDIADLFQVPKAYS
The assay is described as follows: LC/MS HTS assay, malonyl-CoA inhibition of human MCPT-I (palmitoyl-CoA and carnitine converted to palmitoyl carnitine). Conditions: FIG. 9B. In kind it is biochemical.

Text: The biological activity used for the assay is the conversion by CPT-1 of palmitoyl-CoA (fatty acid-CoA) and carnitine to palmitoyl carnitine complex and free CoA.
The biological activity used for the assay is the conversion by CPT-1 of palmitoyl-CoA and carnitine to palmitoyl carnitine complex and free CoA.

The IC50 is the concentration needed to halve the response being measured. A high value points to weaker potency. `CC(C)(COP(=O)(O)OP(=O)(O)OC[C@H]1O[C@@H](n2cnc3c(N)ncnc32)[C@H](O)[C@@H]1OP(=O)(O)O)[C@@H](O)C(=O)NCCC(=O)NCCSC(=O)CC(=O)O` [Malonyl-CoA] yielded an IC50 of 41 nM.
